Patent publication US8916711B2, “Imidazothiazole-chalcone derivatives as potential anticancer agents and process for the preparation thereof” (Council of Scientific and Industrial Research, priority 2009, dated 2014)
Read-outs that look alike come from different tables or passages of the source.

Experiments:
Format in all cases: cell-based
[1] = tested on: A549/ATCC; test: NCI in vitro cytotoxicity (SRB, 48 h), Non-small cell lung panel; settings: Homo sapiens, 48 h exposure
[2] = tested on: EKVX; test: as above; settings: Homo sapiens, 48 h exposure
[3] = tested on: NCI-H226; test: as above; settings: Homo sapiens, 48 h exposure
[4] = tested on: NCI-H522; test: as above; settings: Homo sapiens, 48 h exposure
[5] = tested on: COLO 205; test: NCI in vitro cytotoxicity (SRB, 48 h), Colon panel; settings: Homo sapiens; COLO 205, Colon; 48 h exposure
[6] = tested on: HCT-116; test: NCI in vitro cytotoxicity (SRB, 48 h), Colon panel; settings: Homo sapiens
[7] = tested on: HCT-15; test: NCI in vitro cytotoxicity (SRB, 48 h), Colon panel; settings: Homo sapiens; HCT-15, Colon; 48 h exposure
[8] = tested on: HT29; test: NCI in vitro cytotoxicity (SRB, 48 h), Colon panel; settings: Homo sapiens, HT-29, 48 h exposure
[9] = tested on: KM12; test: NCI in vitro cytotoxicity (SRB, 48 h), Colon panel; settings: Homo sapiens, 48 h exposure
[10] = tested on: SW-620; test: NCI in vitro cytotoxicity (SRB, 48 h), Colon panel; settings: Homo sapiens; SW-620, Colon; 48 h exposure
[11] = tested on: SF-268; test: NCI in vitro cytotoxicity (SRB, 48 h), CNS panel; settings: Homo sapiens; SF-268, CNS; 48 h exposure
[12] = tested on: SF-295; test: NCI in vitro cytotoxicity (SRB, 48 h), CNS panel; settings: Homo sapiens; SF-295, CNS; 48 h exposure
[13] = tested on: U251; test: NCI in vitro cytotoxicity (SRB, 48 h), CNS panel; settings: Homo sapiens, U-251, 48 h exposure
[14] = tested on: IGROV1; test: NCI in vitro cytotoxicity (SRB, 48 h), Ovarian panel; settings: Homo sapiens, IGROV-1; IGROV1, Ovarian; 48 h exposure
[15] = tested on: OVCAR-3; test: as above; settings: Homo sapiens; OVCAR-3, Ovarian; 48 h exposure
[16] = tested on: OVCAR-4; test: as above; settings: Homo sapiens; OVCAR-4, Ovarian; 48 h exposure
[17] = tested on: 786-0; test: NCI in vitro cytotoxicity (SRB, 48 h), Renal panel; settings: Homo sapiens; 786-0, Renal; 48 h exposure
[18] = tested on: ACHN; test: NCI in vitro cytotoxicity (SRB, 48 h), Renal panel; settings: Homo sapiens, 48 h exposure
[19] = tested on: CAKI-1; test: NCI in vitro cytotoxicity (SRB, 48 h), Renal panel; settings: Homo sapiens; CAKI-1, Renal; 48 h exposure
[20] = tested on: RXF 393; test: NCI in vitro cytotoxicity (SRB, 48 h), Renal panel; settings: Homo sapiens; RXF 393, Renal; 48 h exposure
[21] = tested on: SN12C; test: NCI in vitro cytotoxicity (SRB, 48 h), Renal panel; settings: Homo sapiens, 48 h exposure
[22] = tested on: TK-10; test: NCI in vitro cytotoxicity (SRB, 48 h), Renal panel; settings: Homo sapiens; TK-10, Renal; 48 h exposure
[23] = tested on: UO-31; test: NCI in vitro cytotoxicity (SRB, 48 h), Renal panel; settings: Homo sapiens; UO-31, Renal; 48 h exposure
[24] = tested on: PC-3; test: NCI in vitro cytotoxicity (SRB, 48 h), Prostate panel; settings: Homo sapiens; PC-3, Prostate; 48 h exposure
[25] = tested on: DU-145; test: as above; settings: Homo sapiens; DU-145, Prostate; 48 h exposure
[26] = tested on: LOX IMVI; test: NCI in vitro cytotoxicity (SRB, 48 h), Melanoma panel; settings: Homo sapiens, 48 h exposure
[27] = tested on: MALME-3M; test: as above; settings: Homo sapiens, 48 h exposure
[28] = tested on: MDAMB-435; test: as above; settings: Homo sapiens, MDA-MB-435; MDAMB-435, Melanoma; 48 h exposure
[29] = tested on: SK-MEL-28; test: as above; settings: Homo sapiens; SK-MEL-28, Melanoma; 48 h exposure
[30] = tested on: SK-MEL-5; test: as above; settings: Homo sapiens; SK-MEL-5, Melanoma; 48 h exposure
[31] = tested on: UACC-62; test: as above; settings: Homo sapiens; UACC-62, Melanoma; 48 h exposure
[32] = tested on: UACC-25; test: as above; settings: Homo sapiens; UACC-25, Melanoma; 48 h exposure
[33] = tested on: Colon cancer cell lines; test: NCI in vitro cytotoxicity, whole panel; settings: Homo sapiens
[34] = tested on: CNS cancer cell lines; test: NCI in vitro cytotoxicity, whole panel; settings: Homo sapiens
[35] = tested on: Prostate cancer cell lines; test: NCI in vitro cytotoxicity, whole panel; settings: Homo sapiens

For `COc1cc(C(=O)/C=C/c2c(C(F)(F)F)nc3sccn23)cc(OC)c1OC` [Compound 7f, (E)-3-(6-(trifluoromethyl)imidazo[2,1-b]thiazol-5-yl)-1-(3,4,5-trimethoxyphenyl)prop-2-en-1-one], the GI50 [1] was 3440 nM, the GI50 [2] was 2720 nM and the GI50 [3] was 2170 nM. The GI50 [4] was 2030 nM, the GI50 [5] was 1940 nM and the IC50 ([6]; HCT-116, HCT116, Table 4, read-out: Comparative efficacy) was 1010 nM. The GI50 ([6]; HCT-116, Colon, 48 h exposure) was 1010 nM, the GI50 ([6]; HCT-116, colon) was 1010 nM and the GI50 [7] was 1800 nM. The GI50 [8] was 1830 nM, the GI50 [9] was 1470 nM and the GI50 [10] was 1670 nM. The GI50 [11] was 1740 nM, the GI50 [12] was 2580 nM and the GI50 [13] was 1380 nM. For the same compound, the GI50 [14] was 2660 nM, the GI50 [15] was 1860 nM and the GI50 [16] was 3050 nM. For the same compound, the GI50 [17] was 1760 nM, the GI50 [18] was 1820 nM and the GI50 [19] was 1760 nM. It also gave a GI50 [20] of 2020 nM, a GI50 [21] of 1560 nM and a GI50 [22] of 2300 nM. It also gave a GI50 [23] of 1870 nM, a GI50 [24] of 2660 nM and a GI50 [25] of 1410 nM. For the same compound, the GI50 [26] was 1360 nM, the GI50 [27] was 1590 nM and the GI50 [28] was 1610 nM. For the same compound, the GI50 [29] was 1690 nM, the GI50 [30] was 1590 nM and the GI50 [31] was 1520 nM. The GI50 [32] was 1900 nM, the GI50 ([33]; Colon, average of six to eight cell lines, read-out: Log10 GI50 (converted)) was 1620 nM and the CC50 ([33]; Colon, average of six to eight cell lines, read-out: Log10 LC50 (converted)) was 8510 nM. It also gave a GI50 ([33]; exposure period of at least 48 hrs, read-out: GI50, range over colon cell lines) of 1010 to 1940 nM, a GI50 ([34]; CNS cell, exposure period of at least 48 hrs, read-out: GI50, range over CNS cell lines) of 1380 to 2670 nM and a GI50 ([34]; CNS, average of six to eight cell lines, read-out: Log10 GI50 (converted)) of 1910 nM. For the same compound, the CC50 ([34]; CNS, average of six to eight cell lines, read-out: Log10 LC50 (converted)) was 12600 nM, the GI50 ([35]; Prostate cell, exposure period of at least 48 hrs, read-out: GI50, range over prostate cell lines) was 1410 to 2660 nM and the GI50 ([35]; Prostate, average of the panel's cell lines, read-out: Log10 GI50 (converted)) was 1950 nM. The LC50 ([35]; Prostate, average of the panel's cell lines, read-out: Log10 LC50 (converted)) was 20000 nM.
